These results are taken from US10870638B2, “Pyridazinone compound or its salt, and herbicide containing it” (ISHIHARA SANGYO KAISHA, LTD., priority 2016, dated 2020).

What all share (assay type): in vivo
What all share (conditions): active ingredient amount 31 g/ha, 14th day after application

In assay [1] the test system is green foxtail (Setaria viridis L.). The experiment in a line: Test Example 1: foliar treatment, growth inhibition rate on 14th day. A digest of the protocol: (§1)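 Compounds applied once to leaves of pot-grown plants; wild oat at 0.4–1.2 leaf, foxtail 0.5–3.2, rice 0.2–2.7, soybean primary leaf. Inhibition estimated by eye on day 14.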
Assay [2] relates to redroot pigweed (Amaranthus retroflexus L.). Described as above. The method, boiled down: (§2)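 Using a small sprayer, formulated compound in water (0.1 vol % surfactant, 1,000 L/ha) was applied to seedlings grown from seed in upland soil. Fourteen days on, growth state was observed and expressed as percent inhibition from 0 to 100.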
Assay [3] concerns rice (Oryza sativa L.). The assay is described as above. A digest of the protocol:
as §1

Assay [4] relates to barnyardgrass (Echinochloa crus-qalli L.). The description is as above. A digest of the protocol: as §2
Assay [5] concerns italian ryegrass (Lolium multiflorum Lam.). The assay is described as above. A digest of the protocol: as §2
Assay [6] has as its system wild oat (Avena fatua L.). The description is as above. A digest of the protocol: as §1
Assay [7] has as its system soybean (Glycine max Merr.). The description is as above. The method, boiled down: as §1
For assay [8], the system named is wheat (Triticum aestivum L.). The description is as above. A digest of the protocol:
as §2

Assay [9] relates to crabgrass (Digitaria sanquinalis L.). Described as above. The method, boiled down:
as §2

The test system of assay [10] is corn (Zea mays L.). Described as above. A digest of the protocol: as §2
For assay [11], the system named is prickly sida (Sida spinosa L.). Description: Test Example 2: soil application on the day after sowing, growth inhibition rate on 14th day. A digest of the protocol:
(§3)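 Read-out is visual percent growth inhibition 14 days post-application, scaled from 0 (as non-treated) to 100 (complete kill). Treatment: soil application by small sprayer the day after sowing, compound formulations diluted in water equivalent to 1,000 L/ha.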

Assay [12] concerns green foxtail (Setaria viridis L.). Described as above. A digest of the protocol:
as §3

Assay [13] concerns redroot pigweed (Amaranthus retroflexus L.). Described as above. A digest of the protocol: as §3
The subject of assay [14] is rice (Oryza sativa L.). The assay is described as above. A digest of the protocol:
as §3

In assay [15] the test system is barnyardgrass (Echinochloa crus-qalli L.). Described as above. The method, boiled down: as §3
In assay [16] the test system is soybean (Glycine max Merr.). The description is as above. The method, boiled down:
as §3

Assay [17] deals with velvetleaf (Abutilon theophrasti MEDIC.). The assay is described as above. A digest of the protocol:
as §3

Assay [18] deals with wheat (Triticum aestivum L.). The description is as above. A digest of the protocol: as §3
Assay [19] concerns corn (Zea mays L.). The description is as above. A digest of the protocol:
as §3

Assay [20] has as its system crabgrass (Digitaris sanquinalis L.). The assay is described as above. The method, boiled down:
as §3

As to `CCc1ccc(Oc2nc3ccccc3o2)cc1-c1c(O)c(C)nn(C)c1=O` [Compound 2-166], the “Growth inhibition rate (%) Green foxtail” value in assay [1] and in assay [12] was 100% throughout. The “Growth inhibition rate (%) Redroot pigweed” value in [2] is 20%; in assay [13] it was 0%. The “Growth inhibition rate (%) Rice” value in assay [3] is 88%; in assay [14], 70%. In addition, the entries for the “Growth inhibition rate (%) Barnyardgrass” value in assay [4] and in assay [15] were 100% and 99%, respectively. Further, the “Growth inhibition rate (%) Italian ryegrass” value in assay [5] came out at 99%. In addition, in [6], the “Growth inhibition rate (%) Wild oat” value amounted to 40%. Moreover, the “Growth inhibition rate (%) Soybean” value was 30% in assay [7] and 0% in assay [16]. The “Growth inhibition rate (%) Wheat” value was 10% in [8] and 0% in [18]. Also, the “Growth inhibition rate (%) Crabgrass” value is given as 88% in assay [9] and 95% in assay [20]. Moreover, the “Growth inhibition rate (%) Corn” value is on record as 80% in assay [10] and 0% in assay [19]. For the same molecule, the “Growth inhibition rate (%) Prickly sida” value in assay [11] was 0%. The “Growth inhibition rate (%) Velvetleaf” value in [17] amounted to 0%.
In the case of `CCn1ncc(OC(C)=O)c(-c2cc(Oc3nc4ccc(Cl)cc4o3)ccc2C)c1=O` [Compound 2-169], the “Growth inhibition rate (%) Green foxtail” value is recorded as 100% in assay [1] and 98% in assay [12]. In addition, the “Growth inhibition rate (%) Redroot pigweed” value in assay [2] and in assay [13] was 0% throughout. In addition, the “Growth inhibition rate (%) Rice” value in assay [3] turned out to be 83%; in [14], 0%. In addition, the figures for the “Growth inhibition rate (%) Barnyardgrass” value in assay [4] and in [15] were 100% and 70%, respectively. The “Growth inhibition rate (%) Italian ryegrass” value in [5] was found to be 85%. The “Growth inhibition rate (%) Wild oat” value in assay [6] was 88%. For the same molecule, the results for the “Growth inhibition rate (%) Soybean” value in assay [7] and in assay [16] were 40% and 0%, respectively. The “Growth inhibition rate (%) Wheat” value in assay [8] came to 85%; in assay [18], 0%. The “Growth inhibition rate (%) Crabgrass” value in assay [9] is listed as 100%; in assay [20], 98%. The “Growth inhibition rate (%) Corn” value in assay [10] turned out to be 98%; in assay [19] it was 0%. For the same molecule, the “Growth inhibition rate (%) Prickly sida” value in [11] stood at 0%. For the same molecule, the “Growth inhibition rate (%) Velvetleaf” value in assay [17] is 0%.
Regarding `Cc1ccc(Oc2nc3ccc(Cl)cc3o2)cc1-c1c(O)cnn(C(C)C)c1=O` [Compound 2-171], the “Growth inhibition rate (%) Green foxtail” value in assay [1] is given as 93%; in assay [12], 75%. In addition, the “Growth inhibition rate (%) Redroot pigweed” value in assay [2] and in assay [13] was 0% in each case. For the same molecule, the “Growth inhibition rate (%) Rice” value in assay [3] is 25%; in assay [14], 0%. Besides, the “Growth inhibition rate (%) Barnyardgrass” value was 99% in [4] and 65% in [15]. Moreover, in assay [5], the “Growth inhibition rate (%) Italian ryegrass” value is on record as 30%. Further, in assay [6], the “Growth inhibition rate (%) Wild oat” value is listed as 0%. Also, the “Growth inhibition rate (%) Soybean” value in assay [7] is reported as 30%; in assay [16], 0%. Moreover, the “Growth inhibition rate (%) Wheat” value in [8] and in assay [18] was 0% each time. The figures for the “Growth inhibition rate (%) Crabgrass” value in assay [9] and in assay [20] were 90% and 30%, respectively. For the same molecule, the “Growth inhibition rate (%) Corn” value stood at 80% in assay [10] and 0% in assay [19]. The “Growth inhibition rate (%) Prickly sida” value in assay [11] worked out at 0%. Further, the “Growth inhibition rate (%) Velvetleaf” value in assay [17] turned out to be 0%.
On to `CC(=O)Oc1cnn(C(C)C)c(=O)c1-c1cc(Oc2nc3ccc(Cl)cc3o2)ccc1C` [Compound 2-172], for which the “Growth inhibition rate (%) Green foxtail” value in [1] is recorded as 99%; in assay [12], 20%. In addition, the “Growth inhibition rate (%) Redroot pigweed” value in assay [2] and in assay [13] was 0% in each case. For the same molecule, the figures for the “Growth inhibition rate (%) Rice” value in assay [3] and in [14] were 30% and 0%, respectively. Moreover, the entries for the “Growth inhibition rate (%) Barnyardgrass” value in [4] and in [15] were 100% and 60%, respectively. The “Growth inhibition rate (%) Italian ryegrass” value in assay [5] turned out to be 35%. Moreover, the “Growth inhibition rate (%) Wild oat” value in assay [6] is 40%. Moreover, the “Growth inhibition rate (%) Soybean” value in assay [7] is 40%; in assay [16], 0%. Moreover, the “Growth inhibition rate (%) Wheat” value was determined as 10% in assay [8] and 0% in assay [18]. Further, the “Growth inhibition rate (%) Crabgrass” value in assay [9] was found to be 98%; in assay [20] it was 30%. The “Growth inhibition rate (%) Corn” value came to 98% in [10] and 0% in assay [19]. Also, in assay [11], the “Growth inhibition rate (%) Prickly sida” value was found to be 0%. For the same molecule, in assay [17], the “Growth inhibition rate (%) Velvetleaf” value came out at 0%.
As for `Cc1ccc(Oc2nc3cc(Cl)ccc3o2)cc1-c1c(O)cnn(C)c1=O` [Compound 2-173], the “Growth inhibition rate (%) Green foxtail” value in [1] was found to be 88%; in assay [12] it was 10%. Also, the “Growth inhibition rate (%) Redroot pigweed” value in assay [2] and in [13] was 0% in each case. The “Growth inhibition rate (%) Rice” value in assay [3] is on record as 85%; in assay [14], 20%. Further, the “Growth inhibition rate (%) Barnyardgrass” value in assay [4] amounted to 99%; in assay [15], 65%. Besides, in [5], the “Growth inhibition rate (%) Italian ryegrass” value is 90%. In addition, the “Growth inhibition rate (%) Wild oat” value in assay [6] is given as 35%. The “Growth inhibition rate (%) Soybean” value in [7] and in assay [16] was 0% throughout. Besides, the results for the “Growth inhibition rate (%) Wheat” value in [8] and in [18] were 75% and 0%, respectively. Also, the “Growth inhibition rate (%) Crabgrass” value was 95% in [9] and 80% in [20]. For the same molecule, the “Growth inhibition rate (%) Corn” value turned out to be 65% in assay [10] and 10% in assay [19]. In assay [11], the “Growth inhibition rate (%) Prickly sida” value came out at 0%. Also, the “Growth inhibition rate (%) Velvetleaf” value in assay [17] turned out to be 0%.
As to `Cc1nn(C)c(=O)c(-c2cc(Oc3nc4ccc(Cl)cc4o3)ccc2OC(F)(F)F)c1O` [Compound 2-175], the “Growth inhibition rate (%) Green foxtail” value in [1] and in assay [12] was 99% in each case. In addition, the “Growth inhibition rate (%) Redroot pigweed” value in assay [2] and in [13] was 0% each time. The “Growth inhibition rate (%) Rice” value in assay [3] was found to be 0%; in assay [14] it was 90%. In addition, the “Growth inhibition rate (%) Barnyardgrass” value in [4] is reported as 98%; in assay [15], 100%. For the same molecule, in assay [5], the “Growth inhibition rate (%) Italian ryegrass” value stood at 50%. Also, the “Growth inhibition rate (%) Wild oat” value in assay [6] is on record as 10%. Further, the “Growth inhibition rate (%) Soybean” value is 10% in assay [7] and 0% in [16]. The “Growth inhibition rate (%) Wheat” value in assay [8] and in [18] was 0% each time. Also, the “Growth inhibition rate (%) Crabgrass” value is listed as 98% in assay [9] and 95% in [20]. Further, the results for the “Growth inhibition rate (%) Corn” value in assay [10] and in assay [19] were 95% and 30%, respectively. The “Growth inhibition rate (%) Prickly sida” value in [11] is 0%. Also, in assay [17], the “Growth inhibition rate (%) Velvetleaf” value amounted to 0%.
On to `CCn1nc(C)c(O)c(-c2cc(Oc3nc4ccc(Cl)cc4o3)ccc2C)c1=O` [Compound 2-176], for which the figures for the “Growth inhibition rate (%) Green foxtail” value in [1] and in assay [12] were 100% and 99%, respectively. Also, the “Growth inhibition rate (%) Redroot pigweed” value in assay [2] and in assay [13] was 0% in each case. Further, the figures for the “Growth inhibition rate (%) Rice” value in assay [3] and in [14] were 10% and 60%, respectively. Moreover, the “Growth inhibition rate (%) Barnyardgrass” value in assay [4] and in [15] was 100% in each case. Besides, the “Growth inhibition rate (%) Italian ryegrass” value in assay [5] was determined as 85%. Besides, the “Growth inhibition rate (%) Wild oat” value in assay [6] was determined as 25%. The “Growth inhibition rate (%) Soybean” value in [7] and in assay [16] was 0% throughout. For the same molecule, the “Growth inhibition rate (%) Wheat” value in assay [8] and in [18] was 0% in each case. The “Growth inhibition rate (%) Crabgrass” value is recorded as 99% in assay [9] and 98% in assay [20]. Further, the “Growth inhibition rate (%) Corn” value amounted to 80% in [10] and 0% in assay [19]. The “Growth inhibition rate (%) Prickly sida” value in assay [11] is 0%. The “Growth inhibition rate (%) Velvetleaf” value in [17] was found to be 0%.
